Six molecules from ChEMBL document CHEMBL1157992, “Alvaradoins A-D. Anthracenone C arabinosides from alvaradoa jamaicensis” (J Nat Prod, 1999) can be followed below.

Activity calls are given as the source filed them. The rule behind the calls is not given here.

This test deals with Mycobacterium tuberculosis. Nature of the test: Antituberculosis activity against Mycobacterium tuberculosis at 12.5 ug/mL. Format: functional, organism-based.
`COc1cc(O)c2c(c1)[C@@H]([C@H]1OC[C@H](OC(C)=O)[C@H](OC(=O)C=C(C)C)[C@H]1O)c1cc(C)cc(O)c1C2=O`: the result was inactive.

`Cc1cc(O)c2c(c1)C(=O)c1cccc(O)c1C2=O`: the outcome was inactive.

Consider `COc1cc(O)c2c(c1)[C@H]([C@H]1OC[C@H](OC(C)=O)[C@H](OC(=O)C=C(C)C)[C@H]1O)c1cc(C)cc(O)c1C2=O`, for which the result was inactive.

As for `COc1cc(O)c2c(c1)[C@@](O)([C@H]1OC[C@H](OC(C)=O)[C@H](OC(=O)C=C(C)C)[C@H]1O)c1cc(C)cc(O)c1C2=O`, the result was inactive.

With `COc1cc(O)c2c(c1)C(=O)c1cc(C)cc(O)c1C2=O`, the result was inactive.

For `COc1cc(O)c2c(c1)[C@](O)([C@H]1OC[C@H](OC(C)=O)[C@H](OC(=O)C=C(C)C)[C@H]1O)c1cc(C)cc(O)c1C2=O`, the outcome was inactive.
